We go through five molecules from BindingDB's records for doi:10.1016/j.bmcl.2005.08.057 (Novartis Institutes For Biomedical Research, 2005).

One may read the IC50 as the midpoint of a concentration-inhibition curve.

The first experiment addresses C-C chemokine receptor type 1 (Rattus norvegicus). Put plainly: Antagonistic activity at rat CCR1 in CHO-K1 cells.
Molecule `CC(=O)Nc1cc2ccccc2cc1/C=C/C(=O)N1CCN(Cc2ccc(F)cc2)C[C@H]1C` [(R)-N-(3-(3-(4-(4-fluorobenzyl)-2-methylpiperazin-1-yl)-3-oxoprop-1-enyl)naphthalen-2-yl)acetamide] had a concentration for half-maximal inhibition (IC50) of 1500 nM.

The molecule `CC(=O)Nc1cc2ncccc2cc1/C=C/C(=O)N1CCN(Cc2ccc(F)cc2)C[C@H]1C` [(R)-N-(6-(3-(4-(4-fluorobenzyl)-2-methylpiperazin-1-yl)-3-oxoprop-1-enyl)quinolin-7-yl)acetamide] had an IC50 of 300 nM. `COc1cc(/C=C/C(=O)N2C3CCC2CN(Cc2ccc(F)cc2)C3)c(NC(C)=O)cc1Cl` [N-(2-(3-(3-(4-fluorobenzyl)-3,8-diaza-bicyclo[3.2.1]octan-8-yl)-3-oxoprop-1-enyl)-5-chloro-4-methoxyphenyl)acetamide]: the IC50 was 1 nM. With `CN(C)CC(=O)Nc1cc(Cl)ccc1/C=C/C(=O)N1C2CCC1CN(Cc1ccc(F)cc1)C2` [N-(2-(3-(3-(4-fluorobenzyl)-3,8-diaza-bicyclo[3.2.1]octan-8-yl)-3-oxoprop-1-enyl)-5-chlorophenyl)-2-(dimethylamino)acetamide], the IC50 turned out to be 10 nM. The molecule `CC(=O)Nc1cc2ncccc2cc1/C=C/C(=O)N1C2CCC1CN(Cc1ccc(F)cc1)C2` [N-(6-(3-(3-(4-fluorobenzyl)-3,8-diaza-bicyclo[3.2.1]octan-8-yl)-3-oxoprop-1-enyl)quinolin-7-yl)acetamide] gave an IC50 of 6 nM.

Molecular target in a further experiment: not listed separately
The experiment is described as follows: Inhibitory effect on transwell chemotaxis induced by 1 nM MIP-1alpha in mouse pre-B cells transfected with human CCR1.
In the case of `COc1cc(/C=C/C(=O)N2C3CCC2CN(Cc2ccc(F)cc2)C3)c(NC(C)=O)cc1Cl` [N-(2-(3-(3-(4-fluorobenzyl)-3,8-diaza-bicyclo[3.2.1]octan-8-yl)-3-oxoprop-1-enyl)-5-chloro-4-methoxyphenyl)acetamide], it took 7.5 nM to reach half-maximal inhibition (IC50).
